Activity calls are given as the source filed them.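 How the source made its calls: active means signal-decreasing dose-response curve whose fitted half-maximal concentration is at or below twice the highest valid tested dose; inconclusive means flat fit at 30 to 70% signal loss, or poor fit; inactive means the rest.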
Assay: cell viability loss after compound exposure – 24 h, luminescence, cherry-picked samples, cytotoxicity control for PDI inhibitor project, dose response (AID 624285)
Settings: NIH3T3/HeLa viability, CellTiter-Glo ATP luminescence, 24 h; at 35 µM (top of the series)
With `C[C@H](CO)N1C[C@H](C)[C@@H](CN(C)S(=O)(=O)c2ccc(F)cc2)Oc2ccc(NC(=O)Cc3cn(C)c4ccccc34)cc2C1=O` the activity change, negative = cytotoxicity was -0.991% (inactive). For `CCN(CC)CCNC(=O)C(C(=O)c1ccccc1)n1ccccc1=O` (centres undefined), the activity change, negative = cytotoxicity was -1.54% (inactive). In the case of `COc1ccccc1NS(=O)(=O)c1cccc(C(=O)NCC2(N(C)C)CCCCC2)c1`, the activity change, negative = cytotoxicity is reported as -8.59% (inactive). With `CC(=O)N1CCC(C(=O)NCCOc2cccc(C)c2)CC1` the activity change, negative = cytotoxicity was -15.7% (inactive). With `Cc1cc(NC(=O)COC(=O)C2CC(=O)N(c3ccccc3)C2)no1` (centres undefined) the activity change, negative = cytotoxicity was -2.55% (inactive). For `COCC(=O)NC1(c2nnnn2CCOC(=O)Nc2ccc(Cl)cc2)CCCCC1`, the activity change, negative = cytotoxicity was -7.94% (inactive). For `CN1C(=O)NC(c2ccccc2)C2=C1CN(c1cccc(C(F)(F)F)c1)C2=O` (centres undefined), the activity change, negative = cytotoxicity was -4.45% (inactive). With `O=C(N/N=C/c1cccc([N+](=O)[O-])c1)c1cnccn1` the activity change, negative = cytotoxicity was -7.37% (inactive). In the case of `N#Cc1ccccc1CSc1nnc(Cc2ccccc2)o1`, the activity change, negative = cytotoxicity is reported as -7.32% (inactive). In the case of `O=C(/C=C/c1ccc(NC(=O)c2ccccc2-c2ccccc2C(=O)O)cc1)c1ccccc1`, the activity change, negative = cytotoxicity is reported as -8.34% (inactive). With `CCC1Nc2ncnc(N3CCCCC3)c2N(Cc2ccc(C)cc2)C1=O` (centres undefined) the activity change, negative = cytotoxicity was -16.7% (inactive). With `COc1ccc(OC)c(CN2CCN(Cc3cc(=O)oc4cc(O)ccc34)CC2)c1` the activity change, negative = cytotoxicity was -20.6% (inactive). With `CC[C@]12c3[nH]c4cc(-c5ccco5)ccc4c3CCN1C(=O)[C@@H](CC(=O)NCCCOC)C[C@@H]2C(=O)N1CCN(C(=O)c2ccco2)CC1` the activity change, negative = cytotoxicity was -9.72% (inactive). In the case of `CCN(CC)C(=O)CSc1nnc([C@H](Cc2c[nH]c3ccccc23)NC(=O)OC(C)(C)C)o1`, the activity change, negative = cytotoxicity is reported as -8.74% (inactive). For `CC1(C(=O)Nc2ccc3c(c2)OCCO3)CCN1C(=O)C1(c2ccc(Cl)cc2)CC1` (centres undefined), the activity change, negative = cytotoxicity was -11.6% (inactive). In the case of `COc1ccc(C2C(C(C)=O)=C(O)C(=O)N2CCc2c[nH]c3ccccc23)cc1OC` (centres undefined), the activity change, negative = cytotoxicity is reported as -3.29% (inactive). With `O=C(Nc1cccc(S(=O)(=O)Nc2ccc(SC(F)F)cc2)c1)C1CCC1` the activity change, negative = cytotoxicity was -13.1% (inactive). For `O=C(C[C@H]1C[C@H](C(=O)N2CCCCC2)[C@@]2(CCc3ccccc3)c3[nH]c4cc(-c5ccco5)ccc4c3CCN2C1=O)NCCC1=CCCCC1`, the activity change, negative = cytotoxicity was -13% (inactive). In the case of `C[C@@H]1O[C@@H](O[C@@H]2C(=O)c3c(O)cc(O)cc3O[C@H]2c2ccc(O)c(O)c2)[C@H](O)[C@H](O)[C@H]1O`, the activity change, negative = cytotoxicity is reported as -7.93% (inactive). For `O=C1CN(c2nc3ccccc3n3cnnc23)CC(=O)N1CCc1ccccc1`, the activity change, negative = cytotoxicity was -8.64% (inactive). In the case of `CN(C)C(=O)CSc1n[nH]c(-c2ccco2)n1`, the activity change, negative = cytotoxicity is reported as -5.07% (inactive). In the case of `O=C(O)C1C(c2ccccc2)C(C(=O)Oc2ccc(O)cc2)C1c1ccccc1` (centres undefined), the activity change, negative = cytotoxicity is reported as -8.75% (inactive). For `C[C@H]1CCCC(=O)CCCCCc2cc(O)cc(O)c2C(=O)O1`, the activity change, negative = cytotoxicity was -12.8% (inactive). In the case of `C[C@H]1CN([C@@H](C)CO)C(=O)c2cc(NC(=O)Cc3cn(C)c4ccccc34)ccc2O[C@H]1CN(C)S(=O)(=O)c1ccc(F)cc1`, the activity change, negative = cytotoxicity is reported as -5.48% (inactive). With `NC1=NC[C@H](Cc2ccc(O)cc2)N1CC1CCCCC1` the activity change, negative = cytotoxicity was -11.8% (inactive). For `O=C(CSc1n[nH]c(-c2ccccc2)n1)Nc1ccccc1O`, the activity change, negative = cytotoxicity was -6.55% (inactive). With `O=C1NC[C@H](Cc2ccccc2)N(C[C@H]2CCCN2C[C@H](Cc2ccc(O)cc2)N2C[C@H](Cc3ccc(O)cc3)N(CC3CCCCCC3)C(=O)C2=O)C1=O` the activity change, negative = cytotoxicity was -18.9% (inactive). For `COc1cccc(NS(=O)(=O)c2ccc3c(c2)C2C=CCC2C(c2ccc(C(=O)O)cc2)N3)c1` (centres undefined), the activity change, negative = cytotoxicity was -7.82% (inactive). In the case of `Cc1nnc(N/N=C/c2ccc(-c3ccccc3F)o2)n1N`, the activity change, negative = cytotoxicity is reported as -8.41% (inactive). With `Cc1ccc2nc(N3CCN(Cc4nnnn4C4CCCC4)CC3)c(C#N)cc2c1` the activity change, negative = cytotoxicity was -9.95% (inactive). For `CC(=O)c1ccc(OCc2cc(C(=O)N3CCCCC3c3cccnc3)no2)cc1` (centres undefined), the activity change, negative = cytotoxicity was -6.2% (inactive). With `NC(=O)CSc1nnc([C@@H](N)Cc2c[nH]c3ccccc23)o1` the activity change, negative = cytotoxicity was -10.6% (inactive). For `Cc1noc(C)c1S(=O)(=O)Nc1ccc2c(c1)CC(=O)N([C@@H](C)CO)C[C@H](C)[C@H](CN(C)S(=O)(=O)c1ccc(F)cc1)O2`, the activity change, negative = cytotoxicity was 7.36% (inactive). With `Cc1cc2c3c(c1)C1(C(=O)N3C(C)(C)CC2C)C(C#N)=C(N)Oc2n[nH]c(C)c21` (centres undefined) the activity change, negative = cytotoxicity was -11.6% (inactive). With `Cc1cc(C)cc(CC(=O)N2CCC2(C)C(=O)NS(=O)(=O)c2ccc(Br)cc2)c1` (centres undefined) the activity change, negative = cytotoxicity was -4.97% (inactive). For `CCOC(=O)c1ccc(NC(=O)C2(c3ccc(Cl)cc3)CCCC2)cc1`, the activity change, negative = cytotoxicity was -21.1% (inactive). In the case of `CC(C)CCOc1ccc(C2(C)NC(=O)N(CN3CCOCC3)C2=O)cc1` (centres undefined), the activity change, negative = cytotoxicity is reported as -15.3% (inactive). With `CCOC(=O)c1cc(S(=O)(=O)N2CCN(C(=O)OCC)CC2)cn1C` the activity change, negative = cytotoxicity was -3.84% (inactive). With `COCc1[nH][nH]c(=O)c1C=Nc1ccc(F)cc1F` the activity change, negative = cytotoxicity was -11.4% (inactive).
